Test results from article PMC10251479, “PROTAC-Induced Glycogen Synthase Kinase 3β Degradation as a Potential Therapeutic Strategy for Alzheimer’s Disease” (ACS Chemical Neuroscience, 2023).
Values joined by “and” are separate entries in the source; they are usually repeats but may differ in a detail not shown here. Identical values can stand only once.

How the values were obtained:
SH-SY5Y cells [1] = test: Cytotoxicity in SH-SY5Y cells (MTT); assay type: cell-based, human; conditions: MTT, 24 h treatment, 1.25–40 μM
Experimental: Human neuronal SH-SY5Y cells (Sigma-Aldrich, St. Louis, MO, USA) were routinely grown in Dulbecco’s modified Eagle’s Medium supplemented with 10% fetal bovine serum, 2 mM l-glutamine, 50 U/mL penicillin, and 50 μg/mL streptomycin at 37 °C in a humidified incubator with […]
Determination of cytotoxicity
(§1) SH-SY5Y cells were seeded in a 96-well plate at 2 × 10^4 cells/well, incubated for 24 h and then […]
for 24 h at 37°C in 5% CO2. The cell viability, in terms of mitochondrial metabolic function, was evaluated by the reduction of 3-(4,5-dimethyl-2-thiazolyl)-2,5-diphenyl-2H-tetrazolium bromide […]
(MTT) to its insoluble formazan. Briefly, the treatment was replaced with MTT in HBSS [0.5 mg/mL] for 2 h at 37°C in 5% CO2. After washing with HBSS, formazan crystals were dissolved in isopropanol. The amount of formazan was measured (570 nm, reference filter 690 nm) using a multilabel plate reader (VICTOR™ X3, PerkinElmer, Waltham, MA, USA). Data are expressed as mean of three independent experiments. […]

GSK-3β protein [2] = target: T1, GSK-3β protein (Homo sapiens, UniProt P49841); test: GSK-3β degradation by Western blotting in SH-SY5Y cells; assay type: cell-based; design: endogenous in cells; host or cells: SH-SY5Y; conditions: 10 μM, 48 h, Western blotting
T1 sequence (P49841 whole entry): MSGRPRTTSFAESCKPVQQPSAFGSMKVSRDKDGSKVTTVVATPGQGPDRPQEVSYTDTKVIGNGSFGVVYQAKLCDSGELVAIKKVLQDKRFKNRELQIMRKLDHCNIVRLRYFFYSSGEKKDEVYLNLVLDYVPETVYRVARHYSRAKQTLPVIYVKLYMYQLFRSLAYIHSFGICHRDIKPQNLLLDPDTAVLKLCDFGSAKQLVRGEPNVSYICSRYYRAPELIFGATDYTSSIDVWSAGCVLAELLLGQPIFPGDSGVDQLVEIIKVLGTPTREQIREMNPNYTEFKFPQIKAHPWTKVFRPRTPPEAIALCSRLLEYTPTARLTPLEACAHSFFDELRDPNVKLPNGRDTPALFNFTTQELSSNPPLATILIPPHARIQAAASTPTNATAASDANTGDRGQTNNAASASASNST
Experimental: Determination of GSK-3β degradation by Western Blotting
At the end of incubation, cells were trypsinized and the cellular pellet was resuspended in complete lysis buffer containing leupeptin (2 µg/mL, Sigma-Aldrich), phenylmethylsulfonyl fluoride (PMSF, 100 µg/mL, Sigma-Aldrich) and a cocktail of protease/phosphatase inhibitors (100×). The protein concentration was determined using the Bradford method (Bio-Rad Laboratories Srl, Hercules, CA, USA). The protein lysates (50 µg per […]
polyacrylamide gels, Bio-Rad Laboratories SrL) and electroblotted onto 0.45 µm nitrocellulose membranes. Membranes were incubated overnight at 4 °C with primary antibody recognizing GSK-3β (1:1000, Cell Signaling Technologies Inc, Danvers, MA, USA). Membranes were then washed with TRIS-buffered saline-T (TBS + 0.05% Tween20), and then incubated with horseradish peroxidase (POD) linked anti-rabbit secondary antibody (1:2000, GE Healthcare, Chicago, IL, USA).
Immunoreactive bands were visualized by enhanced chemiluminescence (ECL, Bio-Rad Laboratories Srl). The same membranes were stripped and reprobed with anti β-actin (1:1000, Sigma-Aldrich). Data were normalized on the β-actin bands and analyzed by densitometry, using the Quantity One software (Bio-Rad Laboratories Srl).[9] […]

GSK-3β protein [3] = target: T1, GSK-3β protein; test: GSK-3β inhibition in vitro assay (Kinase-Glo luminescent); assay type: biochemical; design: purchased Millipore (Millipore Iberica S.A.U.); conditions: ATP 1 μM, GSM substrate 25 μM, 30 min at 37 °C; mean of at least two determinations in duplicate; read-out: IC50 ± SEM, GSK-3β activity
From the text: N-(2-(2-(2-((2-(2,6-dioxopiperidin-3-yl)-1,3-dioxoisoindolin-4-yl)amino)ethoxy)ethoxy)ethyl)- 4-((2-(naphthalen-1-yl)-3,5-dioxo-1,2,4-thiadiazolidin-4-yl)methyl)benzamide (4). Synthesized […]
GSK-3β inhibition in vitro assay. Human recombinant GSK-3β, prephosphorylated polypeptide substrate and white 96-well plates were purchased from Millipore (Millipore Iberica S.A.U.). Kinase-Glo Luminescent Kinase Assay was obtained from Promega (Promega Biotech Iberica, SL).
Adenosinetriphosphate (ATP) and all other reagents were from Sigma-Aldrich. Assay buffer contained 50 mM 4-(2-hydroxyethyl)-1- piperazineethanesulfonic acid (HEPES) (pH 7.5), 1 mM ethylenediaminetetraacetic acid (EDTA), 1 mM ethylene glycol tetraacetic acid (EGTA), and 15 mM magnesium acetate. The in solution experiments for GSK-3β inhibition analysis were performed by following the method developed by Baki et al.[1] In a typical assay, 10 μL of test compound (dissolved […]
in DMSO at 1 mM concentration and diluted in advance in assay buffer to the desired concentration) and 10 μL (20 ng) of enzyme were added to each well in presence of 20 μL of assay buffer containing […]
After a 30 min incubation time at 37 °C, the enzymatic reaction was stopped by adding 40 μL of Kinase-Glo reagent. Glow-type luminescence was recorded after 10 min using a Victorx3 (PerkinElmer Waltham, MA, USA) plate […]
inhibitory activities were calculated based on maximal kinase (average positive) and luciferase activities (average negative) measured in the absence of inhibitor and in the presence of reference […]
μM), respectively. The linear regression parameters were determined and the IC 50 extrapolated by GraphPad software (version 5.0; GraphPad Software, La Jolla, CA, USA).

PAMPA-BBB permeation = assay type: in vitro ADME; conditions: for Papp at 2.75 h: PAMPA, pH 7.4, PBS:EtOH (70:30), 2 h 45 min at 25 °C, porcine brain lipid, mean ± SD of two independent experiments, read-out: Pe (experimental data)
Experimental: 11. PAMPA BBB permeation studies.
Prediction of the brain penetration was evaluated using a parallel artificial membrane permeability assay (PAMPA).[12] Ten commercial drugs, PBS at pH 7.4, EtOH, and dodecane were purchased from Sigma- Aldrich, Acros organics, Merck, and Fluka. The porcine polar brain lipid (PBL) was from Avanti Polar Lipids. The donor plate was a 96-well filtrate plate (Multiscreen® IP Sterile Plate PDVF […]
both from Millipore. Filter PDVF membrane units (diameter 30 mm, pore size 0.45 µm) from Symta were used to filter the samples. A 96-well plate UV reader (Biteck Instruments, Synergy H4 Hibrid Reader) was used for the UV measurements.
12 mg of promazine) were dissolved in 1 mL of EtOH. 100 µL of this compound stock solution were taken and 1400 µL of EtOH and 3500 µL of PBS were added to reach 30% of EtOH concentration in the experiment. These solutions were filtered. The acceptor 96-well microplate was filled with 180 µL of PBS/EtOH (70/30). The donor 96-well plate was coated with 4 µL of porcine brain lipid in dodecane (20 mg mL-1) and after 5 min, 180 µL of each compound solution was added. 1 mg of […]
of EtOH and 1.4 mL of PBS, filtered and then added to the donor 96-well plate. Then the donor plate was carefully put on the acceptor plate to form a “sandwich”, which was left undisturbed for 2 h and 45 min at 25 °C. During this time the compounds diffused from the donor plate through the brain lipid membrane into the acceptor plate. After incubation, the donor plate was removed. UV plate reader determined the concentration of compounds and commercial drugs in the acceptor and the donor plates. Every sample was analyzed at three to five wavelengths (between 200 and 500 nm), in 3 wells and in two independent runs. Results are given as the mean and the average of the two runs is reported. Quality control compounds (previously mentioned) of known BBB permeability were included in each experiment to validate the analysis set.

[4] = commercial drugs of the validation study; ref [12]; cited from earlier work
SH-SY5Y cells [5] = test: Neuroprotective effects against CuSO4 in SH-SY5Y cells (MTT); assay type: cell-based, human; conditions: 1 μM, 24 h, CuSO4 150 μM, MTT
Experimental: as §1
presence of CuSO4 (150 µM) at 37 °C in 5 % CO2. Cells were also treated with compound 1 (1 µM) for 24 h in the presence of lactacystin (5 µM). At the end of the treatment, the cell viability, in terms of mitochondrial metabolic function, was evaluated by the reduction of 3-(4,5-dimethyl-2-thiazolyl)- 2,5-diphenyl-2H-tetrazolium bromide (MTT) to its insoluble formazan. Briefly, the treatment was replaced with MTT in HBSS [0.5 mg/mL] for 2 h at 37°C in 5% CO2. After washing with HBSS, formazan crystals were dissolved in isopropanol. The amount of formazan was measured (570 nm, reference filter 690 nm) using a multilabel plate reader (VICTOR™ X3, PerkinElmer, Waltham, MA, USA).[10] Data are reported as mean ± SEM of three independent experiments. The neurotoxicity was expressed as a percentage of control cells and calculated by the formula: 100 – ((absorbance of treated

[6] = classified from experimental Pe

O=C1CCC(N2C(=O)c3cccc(NCCOCCOCCNC(=O)c4ccc(Cn5c(=O)sn(-c6cccc7ccccc67)c5=O)cc4)c3C2=O)C(=O)N1 (stereo not drawn) [Compound 4, N-(2-(2-(2-((2-(2,6-dioxopiperidin-3-yl)-1,3-dioxoisoindolin-4-yl)amino)ethoxy)ethoxy)ethyl)-4-((2-(naphthalen-1-yl)-3,5-dioxo-1,2,4-thiadiazolidin-4-yl)methyl)benzamide]
concentration at which cytotoxicity was shown (SH-SY5Y cells [1]): higher than 20 μM | total GSK-3β protein level (GSK-3β protein [2]): did not induce GSK-3β degradation | IC50 (GSK-3β protein [3]): 178 nM

CCn1cc(C(=O)O)c(=O)c2cc(F)c(N3CCNCC3)nc21 [Enoxacin, reference compound]
Papp at 2.75 h (PAMPA-BBB permeation): 10.3 ± 0.95 ×10⁻⁶ cm/s

CN(C)CCCN1c2ccccc2Sc2ccccc21 [Promazine, reference compound]
Papp at 2.75 h (PAMPA-BBB permeation): 24.2 ± 0.89 ×10⁻⁶ cm/s | Pe (literature data) [4]: 8.8 10-6 cm s-1

CCn1cc(C(=O)O)c(=O)c2cc(F)c(N3CCNCC3)cc21 [Norfloxacin, reference compound]
Papp at 2.75 h (PAMPA-BBB permeation): 5.37 ± 0.17 ×10⁻⁶ cm/s

CNCCCN1c2ccccc2CCc2ccccc21 [Desipramine, reference compound]
Papp at 2.75 h (PAMPA-BBB permeation): 36.5 ± 5.35 ×10⁻⁶ cm/s

O=C1CCC(N2C(=O)c3cccc(NCCCOCCCCOCCCNC(=O)c4ccc(Cn5c(=O)sn(-c6cccc7ccccc67)c5=O)cc4)c3C2=O)C(=O)N1 (stereo not drawn) [Compound 2]
concentration at which cytotoxicity was shown (SH-SY5Y cells [1]): ≥ 20 µM | total GSK-3β protein level (GSK-3β protein [2]): did not induce GSK-3β degradation | IC50 (GSK-3β protein [3]): 79.3 nM and 79 nM

O=c1sn(-c2cccc3ccccc23)c(=O)n1Cc1ccccc1 [tideglusib, reference compound]
neurotoxicity induced by CuSO4 (SH-SY5Y cells [5]): significantly counteracted the neurotoxicity induced by CuSO4

O=C(Cn1cc(C2=C(c3ccc(Cl)cc3Cl)C(=O)NC2=O)c2ccccc21)NCCOCCOCCNc1cccc2c1C(=O)N(C1CCC(=O)NC1=O)C2=O (stereo not drawn) [Compound 3]
concentration at which cytotoxicity was shown (SH-SY5Y cells [1]): higher than 20 μM | Papp at 2.75 h (PAMPA-BBB permeation): 20.7 ± 3.93 ×10⁻⁶ cm/s | BBB permeability classification (PAMPA-BBB permeation; [6]): predicted to cross the BBB | Prediction (penetration in the CNS) (PAMPA-BBB permeation; [6]): CNS + (CNS + (green) for P e > 15.78 × 10−6 cm s−1) | total GSK-3β protein level (GSK-3β protein [2]): significantly decreased the total level of GSK-3β protein | IC50 (GSK-3β protein [3]): 457 ± 99 nM

Cn1cc(C2=C(c3ccc(Cl)cc3Cl)C(=O)NC2=O)c2ccccc21 [SB-216763, reference compound]
concentration at which cytotoxicity was shown (SH-SY5Y cells [1]): higher than 20 μM | neurotoxicity induced by CuSO4 (SH-SY5Y cells [5]): significantly counteracted the neurotoxicity induced by CuSO4 | total GSK-3β protein level (GSK-3β protein [2]): did not modify the basal level of GSK-3β protein

CN1C(C(=O)Nc2ccccn2)=C(O)c2ccccc2S1(=O)=O [Piroxicam, reference compound]
Papp at 2.75 h (PAMPA-BBB permeation): 12.8 ± 0.63 ×10⁻⁶ cm/s | Pe (literature data) [4]: 2.5 10-6 cm s-1

Cn1c(=O)c2c(ncn2C)n(C)c1=O [Caffeine, reference compound]
Papp at 2.75 h (PAMPA-BBB permeation): 7.29 ± 0.57 ×10⁻⁶ cm/s
